Marks after values point to notes of the source that are not given here.

The test system of one assay is HBV-specific T cells. Conditions: cumulative over papers, responder = positive multimer staining and/or IFN-γ ELISPOT, ref Hepitopes database [24], [49], cited from earlier work; for % responders (no. of responders/total no. of subjects tested), HCC: HBV-positive HCC patients; for % responders (no. of responders/total no. of subjects tested), Chronic: chronic HBV patients; for % responders (no. of responders/total no. of subjects tested), Acute: patients with acute/resolved HBV infection, asterisk = significantly more prevalent than in other groups.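 On all read-outs here: responder rates refer to previously reported epitopes of HBx or polymerase.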

The test system of assay [1] is PBMCs from blood donors who had previously resolved an HBV infection. The assay can be described thus: Immunogenicity: IFN-γ ELISA on peptide-expanded PBMCs of HBV resolvers. In kind it is cell-based, human. The following applies: for number of responsive donors as a fraction of the total number of subjects tested: PBMCs expanded 14 days, restimulated 48 h, 10 μg/ml/peptide, response = mean OD ≥ mean + 2 SD of DMSO; for IFN-γ production in response to peptide, in words: expanded PBMCs from 9 HBV resolvers, HLA-matched, single-peptide restimulation 48 h, 10 μg/ml, DMSO-subtracted. How it is done:
Finally, the immunogenicity of all HBx- and Pol-derived binders was assessed to determine which binders would be most interesting for the development of an antigen-based HBV-targeting immunotherapy.
Briefly, PBMCs were isolated by Ficoll (GE Healthcare) density centrifugation from buffy coats of 9 donors who had previously resolved HBV infection. Buffy coats were provided by the local blood bank with corresponding 2-digit HLA types. Four-digit HLA typing was performed for 7 out of 9 donors using the global screening array (GSA) (Illumina through the Human Genomics Facility, Erasmus MC Rotterdam) (Table 3). All donors gave written informed consent. PBMCs were cultured in Iscove’s modified Dulbecco’s medium (IMDM) (Lonza) containing 2% human serum (Sanquin) and 50 IU/ml human interleukin-2 (hIL-2) (Miltenyi) in the presence of peptide pools of a maximum of 5 peptides of interest based on HLA matching at 10 μg/ml/peptide. After 14 days, 200,000 cells were restimulated with the peptides of interest for 48 h at 37°C with 10 μg/ml/peptide in triplicate. Supernatants from restimulations were subsequently used in a human IFN-γ (hIFN-γ) ELISA (BioLegend) according to the manufacturer’s instructions. Plates were read at a 450-nm wavelength using an Infinite 200Pro ELISA reader. hIFN-γ levels were calculated from background-subtracted optical density (OD) values (means from triplicates) using a supernatant derived from a previously successful restimulation with c18-27 that was quantified in a separate ELISA using the hIFN-γ standard provided by the manufacturer. HLA binders with a mean OD value of at least the mean plus 2 times the standard deviation (SD) of the dimethyl sulfoxide (DMSO) control were quantified.
(An ELISA detects its analyte on a solid surface through an enzyme-linked reagent.)

The next assay relates to cytotoxic T cells. Conditions: HLA-A*24:02 peptide, ref Yamamiya et al. [89]; cited from earlier work. An excerpt: We identified a few novel epitopes for which the sequence overlaps that of an epitope that has previously been described for the HLA type tested. […] It would now be interesting to investigate how responses to these epitope variants relate in CHB patients, especially since p755-764 has been the only HBV-derived epitope described for supertype HLA-A*24 until very recently. For HLA-A*24:02, we studied the binding cap ...

Another assay concerns the target HLA-A*24:02 (Homo sapiens, UniProt P04439, D101N/D140Y/D185E/E176V/E190D/F33S/G103R/G107R/I119L/I121M/I306V/K335N/L105A/L180Q/L300P/N151K/N90K/Q86E/Q94H/R106L/R138H/R89G/T104I/T345S/V100E/W191G/Y123F). The assay can be described thus: UV-based in vitro HLA binding assay (peptide exchange + HLA-I ELISA), HLA-A*24:02. The following applies: conditional pHLA 0.53 μM, peptide 50 μM, 30 min 366-nm UV, absorbance 414 nm normalized to high-affinity positive control (100%), two exchanges, each in duplicate. How it is done: (§1) Next, the HLA-binding capacity of selected peptides was tested in a UV-based in vitro binding assay. […] HLA-A*11:01 and HLA-A*03:01 were both tested as members of the HLA-A*03 supertype since many HBV-infected patients are Asian and HLA-A*11:01 is more prevalent in this population than the supertype representative HLA-A*03:01, which is more prevalent in Caucasians ([72]). We identified 13 binders for HBx and 33 for Pol across HLA supertypes, including novel binders that have been described previously in the context of another HLA type (Fig. 5A to G, dotted underlining, and Fig. 5H). […] In contrast, binding of infrequently reported epitopes (Fig. 5, solid underlining) could not always be verified.
(§2) Synthetic peptides (Peptide 2.0 Inc.) of selected potential HLA binders were used in an in vitro binding assay as described previously ([96]). […] Subsequently, the peptide exchange efficiency was analyzed using an HLA-I enzyme-linked immunosorbent assay (ELISA), which detects beta-2-microglobulin of peptide-stabilized HLA-I complexes in an exchange reaction mixture. […] The reaction was stopped after 8 min (incubation at room temperature) by the addition of a 2% (wt/vol) oxalic acid dihydrate stop solution (Sanquin Reagents BV) and read in a Thermo Electron Multiskan Ascent ELISA reader at 414 nm. […] Every exchange mixture was measured in duplicate by the HLA-I ELISA. […]

For the next assay, the target named is HLA-B*07:02 (Homo sapiens, UniProt P01889). The assay can be described thus: UV-based in vitro HLA binding assay (peptide exchange + HLA-I ELISA), HLA-B*07:02. The following applies: conditional pHLA 0.53 μM, peptide 50 μM, 30 min 366-nm UV, absorbance 414 nm normalized to high-affinity positive control (100%), two exchanges, each in duplicate. As to the method:
as §1, §2

The next assay concerns the target HLA-B*08:01 (Homo sapiens, UniProt P01889, A93T/A95T/D138N/E176V/E187T/K202T/Q94N/R180D/S35A/V36M/Y33D/Y91F). Put plainly: UV-based in vitro HLA binding assay (peptide exchange + HLA-I ELISA), HLA-B*08:01. Conditions: conditional pHLA 0.53 μM, peptide 50 μM, 30 min 366-nm UV, absorbance 414 nm normalized to high-affinity positive control (100%), two exchanges, each in duplicate. From the text: Nonbound material was removed by washing. […] Every peptide was independently exchanged twice.

Take ALMPLYACI [p653-661]: in the assay with HBV-specific T cells, the “% responders (no. of responders/total no. of subjects tested), HCC” value is given as 0 (0/10) %; the “% responders (no. of responders/total no. of subjects tested), Chronic” value was 0 (0/9) %; the “% responders (no. of responders/total no. of subjects tested), Acute” value is listed as 20 (4/20) %. Regarding NLSWLSLDV [p422-430], the “% responders (no. of responders/total no. of subjects tested), HCC” value in the assay on HBV-specific T cells was 0 (0/10) %.

As for KYTSFPWLL [p756-764], in the assay on HBV-specific T cells, the “% responders (no. of responders/total no. of subjects tested), Chronic” value is on record as 48 (10/21) % and the “% responders (no. of responders/total no. of subjects tested), Acute” value was 93 (13/14)* %. Consider GYPALMPLY [p650-658], for which the “number of responsive donors as a fraction of the total number of subjects tested” value in assay [1] (HLA-A*24:02 donors) is reported as 1 of the 2. In addition, the “responding HBV resolvers” value in the assay on cytotoxic T cells was “none of the 3”. For the sequence ILRGTSFVYV, in the assay with HBV-specific T cells, the “% responders (no. of responders/total no. of subjects tested), Chronic” value was 0 (0/9) % and the “% responders (no. of responders/total no. of subjects tested), Acute” value is 43 (3/7) %.

Take QLDPARDVL: in the assay with HBV-specific T cells, the “% responders (no. of responders/total no. of subjects tested), HCC” value is 0 (0/10) %; the “% responders (no. of responders/total no. of subjects tested), Chronic” value was 0 (0/20) %; the “% responders (no. of responders/total no. of subjects tested), Acute” value is reported as 25 (1/4) %.

Regarding ASFCGSPYSW [p166-175], on HLA-A*24:02, the “HLA binding class (binder/nonbinder), HLA-A*24:02” value is listed as “binder (binders (>25% of the positive control))”. Consider LVVDFSQFSR [p388-397], for which the “% responders (no. of responders/total no. of subjects tested), Acute” value with HBV-specific T cells is 5 (1/22) %. As to YMDDVVLGA [p549-557], in assay [1], the “IFN-γ production in response to peptide, in words” value is listed as “IFN-γ production was detected”. In the assay on HBV-specific T cells, the “% responders (no. of responders/total no. of subjects tested), HCC” value is 0 (0/10) %; the “% responders (no. of responders/total no. of subjects tested), Chronic” value is 0 (0/21) %; the “% responders (no. of responders/total no. of subjects tested), Acute” value is on record as 15 (2/13) %.

In the case of SAICSVVRR, the “% responders (no. of responders/total no. of subjects tested), Acute” value with HBV-specific T cells is 9 (2/22) %. With KLVCSPAPC, in the assay on HBV-specific T cells, the “% responders (no. of responders/total no. of subjects tested), HCC” value is on record as 50 (3/6) %.

As to RKYTSFPWLL [p755-764], the “IFN-γ production in response to peptide, in words” value in assay [1] is recorded as “superior IFN-γ production compared to the known epitope p756-764 in both donors tested”.

As for GLSRYVARL [p453-461], in the assay with HBV-specific T cells, the “% responders (no. of responders/total no. of subjects tested), HCC” value is 0 (0/10) %; the “% responders (no. of responders/total no. of subjects tested), Chronic” value is 6 (5/87) %; the “% responders (no. of responders/total no. of subjects tested), Acute” value is given as 50 (39/78)* %. For the sequence TPARVTGGVF [p365-374], the “number of responsive donors as a fraction of the total number of subjects tested” value in assay [1] (HLA-B*07:02 donors) is 4/4. The “HLA binding class (binder/nonbinder), HLA-B*07:02” value on HLA-B*07:02 is given as “binder (binders (>25% of the positive control))”. In addition, the “% responders (no. of responders/total no. of subjects tested), Acute” value in the assay on HBV-specific T cells was 17 (2/12) %.

Take VLHKRTLGL [x92-100]: the “HLA binding class (binder/nonbinder), HLA-B*08:01” value at HLA-B*08:01 is “binder (binders (>25% of the positive control))”. In addition, in the assay with HBV-specific T cells, the “% responders (no. of responders/total no. of subjects tested), HCC” value is 19 (3/16) % and the “% responders (no. of responders/total no. of subjects tested), Chronic” value is 0 (0/20) %. For SLYADSPSV [p814-822], in the assay with HBV-specific T cells, the “% responders (no. of responders/total no. of subjects tested), Chronic” value is on record as 0 (0/22) % and the “% responders (no. of responders/total no. of subjects tested), Acute” value was 25 (11/44)* %. As to CLFKDWEEL, the “% responders (no. of responders/total no. of subjects tested), HCC” value with HBV-specific T cells is 50 (3/6) %.

In the case of KVGNFTGLY [p55-63], the “% responders (no. of responders/total no. of subjects tested), Acute” value with HBV-specific T cells is 9 (2/22) %. Regarding VLGGCRHKL [x133-141], in the assay with HBV-specific T cells, the “% responders (no. of responders/total no. of subjects tested), HCC” value is on record as 0 (0/10) % and the “% responders (no. of responders/total no. of subjects tested), Chronic” value is 0 (0/20) %. YPALMPLYA [p651-659]: the “% responders (no. of responders/total no. of subjects tested), Acute” value with HBV-specific T cells is 0 (0/12) %. With HTLWKAGILYK [p149-159], the “% responders (no. of responders/total no. of subjects tested), Acute” value in the assay on HBV-specific T cells is 5 (1/22) %. As to YLHTLWKAGI [p147-156], the “% responders (no. of responders/total no. of subjects tested), HCC” value in the assay on HBV-specific T cells is on record as 0 (0/10) %. As for HLSLRGLPV [x52-60], the “HLA binding class (binder/nonbinder), HLA-B*08:01” value at HLA-B*08:01 was “binder (binders (>25% of the positive control))”. Also, in the assay with HBV-specific T cells, the “% responders (no. of responders/total no. of subjects tested), HCC” value is 19 (3/16) % and the “% responders (no. of responders/total no. of subjects tested), Chronic” value is reported as 0 (0/20) %. Take NVSIPWTHK [p47-55]: the “% responders (no. of responders/total no. of subjects tested), Acute” value in the assay with HBV-specific T cells was 5 (1/21) %. For QAFTFSPTYK [p665-674], the “% responders (no. of responders/total no. of subjects tested), Acute” value in the assay on HBV-specific T cells is 14 (3/21) %. For the sequence TLWKAGILYK [p150-159], in the assay on HBV-specific T cells, the “% responders (no. of responders/total no. of subjects tested), Acute” value was 18 (5/28) %. With FLLSLGIHL [p573-581], in the assay with HBV-specific T cells, the “% responders (no. of responders/total no. of subjects tested), HCC” value was 0 (0/10) %; the “% responders (no. of responders/total no. of subjects tested), Chronic” value is 13 (9/70) %; the “% responders (no. of responders/total no. of subjects tested), Acute” value is listed as 59 (50/85)* %. As for HPAAMPHLL [p440-448], the “% responders (no. of responders/total no. of subjects tested), Acute” value in the assay on HBV-specific T cells was 0 (0/12) %.

The values are drawn from PMC7081907, “Discovery and Selection of Hepatitis B Virus-Derived T Cell Epitopes for Global Immunotherapy Based on Viral Indispensability, Conservation, and HLA-Binding Strength” (Journal of Virology, 2020).
